Data on 2 compounds can be found in article PMC5824344 (ACS Chemical Biology, 2017).

Molecules are shown by their SMILES.

The subject of data set [1] is HCV (JFH-1) in Huh7.5 cells. Briefly: HCV antiviral assay in Huh7.5 cells (infectious titer by TCID50 assay). It counts as cell-based, hepatitis C virus. As to conditions: MOI 2, 96 h, titration of 4 or 50 µm of 3. How it is done:
(§1) Supplemental Figure 3: Antiviral activity of 4 in human hepatoma Huh7.5 cell line.
(§2) (A) Huh7.5 cells were infected with DENV (serotype 2, strain 16681, multiplicity of infection = 0.1) and treated with a titration of ToP-DNJ 4 or 50 µm of tocopherol 3 for 48 h. Infectious virus titer was measured by plaque assay on LLC-MK2 cells. Counts were normalized to 100% for untreated samples.
(§3) DENV eﬀect at the concentrations tested. (B) Huh7.5 cells were infected with HCV (JFH-1, multiplicity of infection = 2) and treated with a titration of ToP-DNJ 4 or 50 µm tocopherol 3 for 96 h. Infectious virus titer was measured by TCID50 assay on […]
(§4) tested. In both panels, each data point represent the mean of triplicates, with error bars showing standard error of the mean (GraphPad Prism). […]
Huh7.5 cells were seeded in a 96-well plate at a density of 5× 10^3 cells/well in 100 µL growth media. […] The supernatant was harvested, and infectious viral titre assessed immediately in the TCID50 assay.
Huh7.5 cells were seeded in a 96-well plate at a density of 2× 10^4 cells/well in 100 µL of growth media and incubated for 18 h. The supernatants to be evaluated were diluted 1:10 in growth media, and 7 serial half-log10 dilutions were subsequently prepared in the same media. […]
(§5) each well was scored as either positive (≥ 5 stained cells) or negative. TCID50 values were calculated according to the method of Reed and Muench.8 […]

Data set [2] deals with DENV (serotype 2, strain 16681) in Huh7.5 cells. Nature of the data set: DENV Huh7.5 antiviral assay (infectious titer by plaque assay). It counts as cell-based, dengue virus. The settings on record: MOI 0.1, 48 h, titration of 4 or 50 µm of 3. How it is done: as §1, §2, §3, §4, §5
(§6) The infectious DENV titres in supernatants collected were evaluated by plaque assay as described previously.9 Brieﬂy, LLC-MK2 cells were seeded in conﬂuent monolayers in a 12-well plate. Four 10-fold dilutions of each supernatant to be analyzed were prepared in minimum essential media (MEM, Gibco), supplemented with 100 µg mL−1 streptomycin, 100 U mL−1 penicillin and 10% (v/v) FCS. […]
(§7) After 1 d, plaques were observed and counted from the underside of the plate by eye. […]

For data set [3], the system named is DENV2 strain 16681 in primary human MDMΦ. Nature of the data set: DENV primary MDMΦ antiviral assay (infectious titer by plaque assay). It counts as cell-based, dengue virus. The settings on record: dengue-infected MDMΦ, 7 donors. How it is done:
each well was scored as either positive (≥ 5 stained cells) or negative. TCID50 values were calculated according to the method of Reed and Muench.8
5.7 DENV Primary MDMΦ Antiviral Assay
DENV2 strain 16681 (a gift from Prof. E. Gould, Centre for Ecology and Hydrology, Oxford, United Kingdom) was propagated in the C6/36 cell line. In the antiviral assay, MDMΦ cells (7 donors) were seeded in a 24-well plate at a density of 1× 10^6 cells/well in 1 mL of growth media. The cells were inoculated for 2 h with DENV2 16681 strain at an MOI of 1. […]
as §6, §7
18 healthy male BALB/c mice (8 – 12 weeks old) weighing between 20 and 35 g were procured from ACTREC, Mumbai, India. […] Temperature and humidity were recorded by an auto-controlled data logging system and maintained at 22± 3◦C and 55± 15% humidity, respectively. […]

On the set-up of data set [4]: method as in PMID 15522126. As to conditions: cited from earlier work.
Data set [5] deals with Rat intestinal maltase. Nature of the data set: Inhibition of rat intestinal maltase (natural substrate, glucose release). It counts as biochemical. The settings on record: isolated enzyme in vitro; mean of three measurements; read-out: IC50, α-Glucosidase, Rat intestinal maltase. How it is done: (§8) 4 Enzyme Inhibition Assays
(§9) All rat enzymes were isolated from 18-week-old, male Wistar rats, while human lysosomal α-glucosidase was obtained in commercially available form from Sanoﬁ Genzyme. Inhibition of isolated glucosidases was evaluated as described previously. 3 Brieﬂy, maltase, isomaltase, sucrase, and cellobiase were used as partially puriﬁed tissue extracts. Inhibition assays for each enzyme were performed with the respective natural substrate, and release of d-glucose measured by Glucose B-test (Wako Diagnostics). Assays of rat ER α-glucosidase II and human lysosomal α-glucosidase inhibition were conducted with α-p-nitrophenylglucoside as substrate; 400 mm Na2CO3 was added to quench these reactions, and the extent of hydrolysis was evaluated as absorbance at 400 nm by spectrophotometer.
(§10) ER α-glucosidase I inhibition assays were performed using anthranilic acid-labelled Glc3Man7GlcNAc2 as substrate. After terminating the reaction with acetonitrile, protein was removed by cen-trifugation through a 10 kDa molecular weight cut oﬀ ﬁlter. The amount of hydrolysis was then quantiﬁed by normal phase high performance liquid chromatography analysis of unreacted substrate and product (Glc2Man7GlcNAc2).4
(§11) ER α-glucosidase II inhibition assays using native-like substrates were performed using an-thranilic acid-labelled Glc2Man7GlcNAc2 as substrate. After terminating the reaction with acetonitrile, protein was removed by centrifugation through a 10 kDa molecular weight cut oﬀ ﬁlter. The amount of hydrolysis was then quantiﬁed by normal phase high performance liq-uid chromatography analysis of unreacted substrate and both products (Glc1Man7GlcNAc2

Data set [6] deals with T1, Rat liver ER α-glucosidase II (Rattus norvegicus, UniProt A0A8I6GFL3).
T1 construct: Rat liver ER, II; from tissue; host or cells: liver of male Wistar rats
Nature of the data set: Inhibition of isolated rat liver ER α-glucosidase II (α-p-nitrophenylglucoside substrate). It counts as biochemical. As to conditions: isolated enzyme in vitro; read-out: IC50 with regard to GluII. How it is done:
as §8, §9, §10, §11

The target of data set [7] is T2, Rat liver ER α-glucosidase I (Rattus norvegicus, UniProt O88941).
T2 construct: Rat liver ER, I; from tissue; host or cells: liver of male Wistar rats
T2 sequence (O88941 1-834): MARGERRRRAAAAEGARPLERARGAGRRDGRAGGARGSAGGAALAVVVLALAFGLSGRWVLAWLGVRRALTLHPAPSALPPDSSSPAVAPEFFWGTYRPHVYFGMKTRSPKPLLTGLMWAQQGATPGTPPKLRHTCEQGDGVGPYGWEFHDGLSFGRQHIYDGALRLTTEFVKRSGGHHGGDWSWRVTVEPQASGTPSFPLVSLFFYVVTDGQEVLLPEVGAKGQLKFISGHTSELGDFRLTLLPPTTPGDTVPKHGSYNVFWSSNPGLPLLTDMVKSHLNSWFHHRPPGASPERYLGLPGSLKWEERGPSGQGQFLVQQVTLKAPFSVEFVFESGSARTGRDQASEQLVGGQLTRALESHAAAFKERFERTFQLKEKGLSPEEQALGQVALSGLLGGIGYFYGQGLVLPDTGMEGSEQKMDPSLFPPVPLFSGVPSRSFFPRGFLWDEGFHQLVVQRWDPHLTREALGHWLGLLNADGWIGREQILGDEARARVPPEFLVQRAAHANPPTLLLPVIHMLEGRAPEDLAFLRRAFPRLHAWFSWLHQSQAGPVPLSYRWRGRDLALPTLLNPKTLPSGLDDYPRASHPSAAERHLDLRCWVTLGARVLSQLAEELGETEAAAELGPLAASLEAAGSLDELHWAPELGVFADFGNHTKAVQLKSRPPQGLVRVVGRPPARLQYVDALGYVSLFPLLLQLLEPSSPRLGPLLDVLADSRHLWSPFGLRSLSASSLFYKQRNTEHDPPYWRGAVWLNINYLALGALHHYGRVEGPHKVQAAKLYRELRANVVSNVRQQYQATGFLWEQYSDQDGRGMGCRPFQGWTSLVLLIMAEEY
Nature of the data set: Inhibition of isolated rat liver ER α-glucosidase I (anthranilic acid-labelled Glc3Man7GlcNAc2 substrate, HPLC). It counts as biochemical. The settings on record: isolated enzyme in vitro; mean of three measurements. How it is done: as §8, §9, §10, §11

Data set [8] addresses T3, Rat intestinal isomaltase (Rattus norvegicus, UniProt P23739).
T3 construct: from tissue; host or cells: intestine of male Wistar rats, partially purified extract
Nature of the data set: Inhibition of rat intestinal isomaltase (natural substrate, glucose release). It counts as biochemical. The settings on record: isolated enzyme in vitro; mean of three measurements; read-out: IC50, α-Glucosidase, Rat intestinal isomaltase. How it is done: as §8, §9, §10, §11

T1 sequence (A0A8I6GFL3 33-944): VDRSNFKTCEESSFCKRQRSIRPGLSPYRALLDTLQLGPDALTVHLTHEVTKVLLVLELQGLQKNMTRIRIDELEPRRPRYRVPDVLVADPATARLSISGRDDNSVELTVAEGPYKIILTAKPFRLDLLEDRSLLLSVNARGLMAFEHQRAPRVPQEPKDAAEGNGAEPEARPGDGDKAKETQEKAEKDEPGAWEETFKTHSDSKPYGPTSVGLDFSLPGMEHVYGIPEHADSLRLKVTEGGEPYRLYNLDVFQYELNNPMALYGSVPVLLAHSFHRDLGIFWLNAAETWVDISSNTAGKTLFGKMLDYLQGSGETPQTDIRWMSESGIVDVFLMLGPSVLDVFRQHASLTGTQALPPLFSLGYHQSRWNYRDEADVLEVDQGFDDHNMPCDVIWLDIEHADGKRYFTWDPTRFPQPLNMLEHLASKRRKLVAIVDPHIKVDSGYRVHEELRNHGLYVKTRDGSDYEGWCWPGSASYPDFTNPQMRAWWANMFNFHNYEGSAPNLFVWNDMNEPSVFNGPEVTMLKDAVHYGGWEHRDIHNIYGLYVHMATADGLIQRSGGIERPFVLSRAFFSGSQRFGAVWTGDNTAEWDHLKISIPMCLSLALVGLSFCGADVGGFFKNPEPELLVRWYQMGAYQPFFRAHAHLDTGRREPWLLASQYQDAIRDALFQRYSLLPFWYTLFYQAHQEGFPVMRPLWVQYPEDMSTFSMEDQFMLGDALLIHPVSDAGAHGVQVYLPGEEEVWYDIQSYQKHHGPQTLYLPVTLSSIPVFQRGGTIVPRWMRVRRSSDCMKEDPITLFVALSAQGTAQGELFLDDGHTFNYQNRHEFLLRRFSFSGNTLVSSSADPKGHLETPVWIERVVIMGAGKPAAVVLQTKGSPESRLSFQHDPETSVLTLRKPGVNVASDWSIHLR
T1 sequence (A0A8I6ADW9 1-525 partner): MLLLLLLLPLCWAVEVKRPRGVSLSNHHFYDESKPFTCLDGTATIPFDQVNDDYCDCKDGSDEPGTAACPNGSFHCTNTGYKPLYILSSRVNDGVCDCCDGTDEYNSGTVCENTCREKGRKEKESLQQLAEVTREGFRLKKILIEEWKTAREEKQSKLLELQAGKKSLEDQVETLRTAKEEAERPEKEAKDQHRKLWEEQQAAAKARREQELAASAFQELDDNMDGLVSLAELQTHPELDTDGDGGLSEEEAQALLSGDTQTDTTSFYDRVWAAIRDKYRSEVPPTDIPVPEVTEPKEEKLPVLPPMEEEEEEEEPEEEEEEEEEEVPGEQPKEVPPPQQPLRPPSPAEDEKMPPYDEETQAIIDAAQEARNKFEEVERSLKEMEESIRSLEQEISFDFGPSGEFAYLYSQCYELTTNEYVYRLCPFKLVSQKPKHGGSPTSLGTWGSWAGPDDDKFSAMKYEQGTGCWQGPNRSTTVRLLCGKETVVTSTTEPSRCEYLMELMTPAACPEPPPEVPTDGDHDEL
T3 sequence (P23739 whole entry): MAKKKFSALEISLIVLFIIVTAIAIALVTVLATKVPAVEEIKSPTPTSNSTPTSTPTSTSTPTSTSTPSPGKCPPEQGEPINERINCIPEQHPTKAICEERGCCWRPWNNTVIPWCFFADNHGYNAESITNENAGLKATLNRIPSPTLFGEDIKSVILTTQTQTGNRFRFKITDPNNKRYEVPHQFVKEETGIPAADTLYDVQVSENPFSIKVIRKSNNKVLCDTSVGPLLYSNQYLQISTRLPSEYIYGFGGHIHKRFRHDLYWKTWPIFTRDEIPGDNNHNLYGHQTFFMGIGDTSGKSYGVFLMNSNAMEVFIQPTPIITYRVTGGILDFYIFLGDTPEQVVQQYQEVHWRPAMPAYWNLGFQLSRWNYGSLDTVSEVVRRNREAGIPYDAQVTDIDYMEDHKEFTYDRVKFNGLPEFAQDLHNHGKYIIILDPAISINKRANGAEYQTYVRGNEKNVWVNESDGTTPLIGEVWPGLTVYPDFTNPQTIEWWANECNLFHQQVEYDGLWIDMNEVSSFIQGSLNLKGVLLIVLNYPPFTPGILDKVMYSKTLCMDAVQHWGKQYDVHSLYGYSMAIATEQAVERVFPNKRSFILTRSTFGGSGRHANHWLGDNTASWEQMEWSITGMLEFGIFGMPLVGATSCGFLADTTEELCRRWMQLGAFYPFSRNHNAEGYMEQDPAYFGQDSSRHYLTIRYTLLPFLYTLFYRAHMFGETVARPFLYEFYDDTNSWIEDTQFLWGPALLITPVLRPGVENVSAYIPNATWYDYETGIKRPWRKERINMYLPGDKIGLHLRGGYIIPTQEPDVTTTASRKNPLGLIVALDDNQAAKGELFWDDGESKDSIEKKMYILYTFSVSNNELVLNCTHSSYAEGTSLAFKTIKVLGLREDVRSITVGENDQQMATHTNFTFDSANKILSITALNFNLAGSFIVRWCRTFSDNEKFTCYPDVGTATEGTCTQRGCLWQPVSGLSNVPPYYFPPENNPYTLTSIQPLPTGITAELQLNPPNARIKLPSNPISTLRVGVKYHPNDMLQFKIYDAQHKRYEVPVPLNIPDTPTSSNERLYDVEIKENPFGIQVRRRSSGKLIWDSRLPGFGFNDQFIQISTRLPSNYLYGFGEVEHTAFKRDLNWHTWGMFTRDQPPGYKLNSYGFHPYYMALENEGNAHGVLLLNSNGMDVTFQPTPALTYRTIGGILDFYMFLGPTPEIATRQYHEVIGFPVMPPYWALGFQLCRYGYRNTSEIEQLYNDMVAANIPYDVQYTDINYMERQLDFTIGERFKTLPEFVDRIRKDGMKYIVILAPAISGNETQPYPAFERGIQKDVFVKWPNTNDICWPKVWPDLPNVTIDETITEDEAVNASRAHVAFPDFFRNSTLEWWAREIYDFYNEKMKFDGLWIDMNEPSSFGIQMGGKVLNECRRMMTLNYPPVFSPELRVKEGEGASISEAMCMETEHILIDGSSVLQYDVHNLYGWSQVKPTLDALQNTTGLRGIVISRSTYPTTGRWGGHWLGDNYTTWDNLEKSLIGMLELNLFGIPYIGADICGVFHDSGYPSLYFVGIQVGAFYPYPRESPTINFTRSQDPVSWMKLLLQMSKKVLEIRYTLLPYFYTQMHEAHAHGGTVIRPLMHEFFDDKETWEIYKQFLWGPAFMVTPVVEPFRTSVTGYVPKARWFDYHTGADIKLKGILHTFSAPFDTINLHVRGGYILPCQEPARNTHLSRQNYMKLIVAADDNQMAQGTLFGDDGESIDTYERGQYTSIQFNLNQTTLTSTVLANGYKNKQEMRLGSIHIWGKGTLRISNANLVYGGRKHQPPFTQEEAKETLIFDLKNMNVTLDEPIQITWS

On to `Cc1c(C)c2c(c(C)c1O)CCC(C)(CCCC(C)CCCC(C)CCCC(C)C)O2` [Compound 3, D-(+)-α-tocopherol, reference compound], for which, in data set [1], the “anti-HCV effect (infectious virus titer)” value is “Neither 4 nor 3 showed an anti-HCV eﬀect”. In addition, the “anti-DENV effect (infectious virus titer)” value in data set [2] is “Neither 4 nor 3 showed an anti-”. In data set [3], the “antiviral effect on infectious virus titer” value was “no antiviral effect”. Further, in data set [4], the “increase of plasma levels when consumed with a lipid-rich meal” value is given as 10 fold.
As a reminder, the IC50 is the point on the concentration scale where inhibition reaches its midpoint. For the compound `OC[C@H]1NC[C@H](O)[C@@H](O)[C@@H]1O` [Compound 1, D-1-deoxynojirimycin, reference compound], the concentration for half-maximal inhibition (IC50) in data set [5] came to 160 nM; in data set [6] it was 16000 nM; in data set [7], 2200 nM; in data set [8], 790 nM.
